Assay results published in PubChem BioAssay AID248 (DTP/NCI, 2004).
Where “and” joins values, the source holds several entries; their conditions need not be identical. Identical values can stand only once. Toxic doses and inconclusive results are not listed. Rule as the data show it: active = T/C of 150% or more; inactive = T/C below 125%.

Tested on: L1210 leukemia ip in BDF1 mice, survival T/C
Assay: NCI In Vivo Anticancer Drug Screen. Data for tumor model L1210 Leukemia (intraperitoneal) in B6D2F1 (BDF1) mice
Details: endpoint: mean survival time, higher = longer survival
Procedure, shortened: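 Tumor cells were implanted, animals were treated, and survival was followed. The result divides the treated measurement by the vehicle-control measurement.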

[1] = dose: 100.0 mg/kg/injection, schedule: Q01DX009 (ip), vehicle: Klucel (hydroxypropylcellulose) (HPC)
[2] = dose: 200.0 mg/kg/injection, schedule: Q01DX009 (ip), vehicle: Klucel (hydroxypropylcellulose) (HPC)
[3] = dose: 400.0 mg/kg/injection, schedule: Q01DX009 (ip), vehicle: Klucel (hydroxypropylcellulose) (HPC)
[4] = dose: 12.5 mg/kg/injection, schedule: Q01DX009 (ip), vehicle: saline with Tween-80
[5] = dose: 25.0 mg/kg/injection, schedule: Q01DX009 (ip), vehicle: saline with Tween-80
[6] = dose: 100.0 mg/kg/injection, schedule: Q04DX002 (ip), vehicle: saline with Tween-80
[7] = dose: 200.0 mg/kg/injection, schedule: Q04DX002 (ip), vehicle: saline with Tween-80
[8] = dose: 100.0 mg/kg/injection, schedule: Q04DX003 (ip), vehicle: saline with Tween-80
[9] = dose: 200.0 mg/kg/injection, schedule: Q04DX003 (ip), vehicle: saline with Tween-80
[10] = dose: 400.0 mg/kg/injection, schedule: Q04DX003 (ip), vehicle: saline with Tween-80
[11] = dose: 25.0 mg/kg/injection, schedule: Q04DX002 (ip), vehicle: saline with Tween-80
[12] = dose: 6.25 mg/kg/injection, schedule: Q04DX002 (ip), vehicle: saline with Tween-80
[13] = dose: 12.5 mg/kg/injection, schedule: Q04DX002 (ip), vehicle: saline with Tween-80
[14] = dose: 100.0 mg/kg/injection, schedule: Q01DX009 (ip), vehicle: saline with Tween-80
[15] = dose: 200.0 mg/kg/injection, schedule: Q01DX009 (ip), vehicle: saline with Tween-80
[16] = dose: 400.0 mg/kg/injection, schedule: Q04DX002 (ip), vehicle: saline with Tween-80
[17] = dose: 100.0 mg/kg/injection, schedule: Q04DX003 (ip), vehicle: Klucel (hydroxypropylcellulose) (HPC)
[18] = dose: 200.0 mg/kg/injection, schedule: Q04DX003 (ip), vehicle: Klucel (hydroxypropylcellulose) (HPC)
[19] = dose: 400.0 mg/kg/injection, schedule: Q04DX003 (ip), vehicle: Klucel (hydroxypropylcellulose) (HPC)

Measured: T/C

COc1cc(C=O)ccc1OC(=O)Nc1cc([N+](=O)[O-])ccc1F
inactive: [1] 97 % of control | [2] 93 % of control | [3] 92 % of control

CC1(C)OC2C(C(N)=O)OC(n3cnc4c(N)ncnc43)C2O1 (configuration not stated)
inactive: dose: 100.0 mg/kg/injection, schedule: Q01DX005 (ip), vehicle: saline 104 % of control | dose: 200.0 mg/kg/injection, schedule: Q01DX005 (ip), vehicle: saline 102 % of control

CN/N=C/c1ccccc1
inactive: [4] 102 % of control | [5] 107 % of control | dose: 50.0 mg/kg/injection, schedule: Q01DX009 (ip), vehicle: saline with Tween-80 97 % of control and 112 % of control | [6] 95 % of control | [7] 92 % of control

O=C(O)c1cc2ccccc2cc1O.Oc1cccc2cccnc12.[Cu]
inactive: dose: 0.5 mg/kg/injection, schedule: Q01DX015 (ip), vehicle: carboxymethylcellulose (CMC) 91 % of control | dose: 1.0 mg/kg/injection, schedule: Q01DX015 (ip), vehicle: carboxymethylcellulose (CMC) 91 % of control | dose: 4.0 mg/kg/injection, schedule: Q01DX015 (ip), vehicle: carboxymethylcellulose (CMC) 93 % of control | dose: 8.0 mg/kg/injection, schedule: Q01DX015 (ip), vehicle: carboxymethylcellulose (CMC) 89 % of control and 90 % of control

NP(O)(O)=S
inactive: dose: 9.38 mg/kg/injection, schedule: Q01DX001 (ip), vehicle: saline 104 % of control | dose: 18.75 mg/kg/injection, schedule: Q01DX001 (ip), vehicle: saline 98 % of control

CC(=O)Nc1ccc(Cc2ccc(Br)cc2)cc1
inactive: dose: 100.0 mg/kg/injection, schedule: Q01DX001 (ip), vehicle: saline 96 % of control | dose: 200.0 mg/kg/injection, schedule: Q01DX001 (ip), vehicle: saline 106 % of control

COC1OC(CN2C(=O)c3ccccc3C2=O)C2OC(C)(C)OC12 (configuration not stated)
inactive: [8] 106 % of control | [9] 97 % of control | [10] 96 % of control

CCCCCC(C)O[Si](C)Cc1ccccc1 (configuration not stated)
inactive: [8] 95 % of control | [9] 97 % of control | [10] 90 % of control

C[CH2][Pb]([Br])([CH2]C)[CH2]C
inactive: dose: 6.25 mg/kg/injection, schedule: Q01DX009 (ip), vehicle: saline with Tween-80 103 % of control | [4] 103 % of control | [5] 94 % of control and 103 % of control | [11] 93 % of control | dose: 50.0 mg/kg/injection, schedule: Q04DX002 (ip), vehicle: saline with Tween-80 99 % of control | [6] 96 % of control

COC1OC(CN2CC2)C2OC(C)(C)OC12 (configuration not stated)
inactive: dose: 75.0 mg/kg/injection, schedule: Q01DX001 (ip), vehicle: carboxymethylcellulose (CMC) 102 % of control

c1ccc(C[As+](c2ccccc2)(c2ccccc2)c2ccccc2)cc1
inactive: dose: 5.0 mg/kg/injection, schedule: Q01DX001 (ip), vehicle: saline 101 % of control | [12] 97 % of control | dose: 10.0 mg/kg/injection, schedule: Q01DX001 (ip), vehicle: saline 90 % of control | [13] 86 % of control | dose: 20.0 mg/kg/injection, schedule: Q01DX001 (ip), vehicle: saline 93 % of control | [11] 101 % of control | dose: 40.0 mg/kg/injection, schedule: Q01DX001 (ip), vehicle: saline 109 % of control

Cc1cc(OC(=O)Nc2ccccc2C(F)(F)F)cc(C)c1Cl
inactive: [14] 109 % of control | [6] 91 % of control | [15] 102 % of control | [7] 95 % of control | [16] 98 % of control

CC1(C)C2CCC1(C)C(Oc1ccccc1)C2 (configuration not stated)
inactive: [14] 100 % of control | [15] 98 % of control

COc1ncnc2nc[nH]c12
inactive: dose: 50.0 mg/kg/injection, schedule: Q01DX001 (ip), vehicle: Klucel (hydroxypropylcellulose) (HPC) 97 % of control | dose: 100.0 mg/kg/injection, schedule: Q01DX001 (ip), vehicle: Klucel (hydroxypropylcellulose) (HPC) 103 % of control | [1] 101 % of control | [17] 97 % of control | dose: 200.0 mg/kg/injection, schedule: Q01DX001 (ip), vehicle: Klucel (hydroxypropylcellulose) (HPC) 98 % of control | [2] 102 % of control | [18] 105 % of control | dose: 400.0 mg/kg/injection, schedule: Q01DX001 (ip), vehicle: Klucel (hydroxypropylcellulose) (HPC) 101 % of control | [3] 98 % of control | [19] 106 % of control

Cc1ccc(S(=O)(=O)Oc2ccc(-c3ccc(Br)cc3)cc2)cc1
inactive: dose: 75.0 mg/kg/injection, schedule: Q01DX001 (ip), vehicle: saline 97 % of control | dose: 150.0 mg/kg/injection, schedule: Q01DX001 (ip), vehicle: saline 105 % of control | dose: 300.0 mg/kg/injection, schedule: Q01DX001 (ip), vehicle: saline 105 % of control

O=C(c1ccccc1)c1ccsc1C(=O)O
inactive: [12] 94 % of control | [13] 97 % of control | [11] 90 % of control | [7] 101 % of control | [16] 89 % of control

COc1ccc2c(ccc3c2ncc2c(=O)[nH][nH]c23)c1
inactive: dose: 50.0 mg/kg/injection, schedule: Q01DX009 (ip), vehicle: Klucel (hydroxypropylcellulose) (HPC) 92 % of control | [1] 92 % of control | [2] 92 % of control

Nc1ccnnc1
inactive: dose: 50.0 mg/kg/injection, schedule: Q01DX009 (ip), vehicle: saline 106 % of control | dose: 100.0 mg/kg/injection, schedule: Q01DX009 (ip), vehicle: saline 101 % of control | dose: 200.0 mg/kg/injection, schedule: Q01DX009 (ip), vehicle: saline 104 % of control

CC(=O)CC(=O)Nc1ccc2ccccc2c1
inactive: [1] 98 % of control | [17] 92 % of control | [18] 97 % of control | [19] 92 % of control

O=[N+]([O-])c1ccc(N=C(Nc2ccc([N+](=O)[O-])cc2)c2ccccc2)cc1
inactive: dose: 100.0 mg/kg/injection, schedule: Q01DX009 (ip), vehicle: other 92 % of control | dose: 100.0 mg/kg/injection, schedule: Q04DX003 (ip), vehicle: other 96 % of control | dose: 200.0 mg/kg/injection, schedule: Q01DX009 (ip), vehicle: other 101 % of control | dose: 200.0 mg/kg/injection, schedule: Q04DX003 (ip), vehicle: other 102 % of control | dose: 400.0 mg/kg/injection, schedule: Q01DX009 (ip), vehicle: other 97 % of control | dose: 400.0 mg/kg/injection, schedule: Q04DX003 (ip), vehicle: other 91 % of control

CN1CCc2ccc(O)cc2C1
inactive: dose: 100.0 mg/kg/injection, schedule: Q04DX003 (ip), vehicle: saline 95 % of control | dose: 200.0 mg/kg/injection, schedule: Q04DX003 (ip), vehicle: saline 95 % of control

O=S(=O)(O)C(O)c1cccc2ccccc12 (configuration not stated)
inactive: [14] 105 % of control | [15] 105 % of control | dose: 400.0 mg/kg/injection, schedule: Q01DX009 (ip), vehicle: saline with Tween-80 115 % of control

CC1(C)C2CCC1(C)C2C=O (configuration not stated)
inactive: [1] 96 % of control | [2] 93 % of control | [3] 96 % of control
